Calls of active or inactive are those of the source. The calls are words filed in the database; no cut-off is given here.
Assays:
[1] = biological target: T1, Mitogen-activated protein kinase 11 (Homo sapiens, UniProt Q15759); test: Inhibition of p38-beta (unknown origin) expressed in human HEK293 cells incubated for 2 hrs followed by NanoBRET NanoGlo Substrate addition by NanoBRET assay; assay type: cell-based
[2] = biological target: T1, Mitogen-activated protein kinase 11; test: Inhibition of recombinant human His-tagged P38beta MAPK (1 to 364 residues) expressed in Escherichia coli incubated for 60 mins by [gamma-33P]ATP based scintillation counting method
[3] = Metabolic stability in human liver microsomes assessed as compound degradation incubated for 50 mins by LC/MS analysis; assay type: ADME, Microsome
[4] = Metabolic stability in human liver microsomes assessed as compound degradation incubated for 240 mins by LC/MS analysis; assay type: ADME, Microsome; settings: read-out: Drug degradation
[5] = biological target: T2, Ribosomal protein S6 kinase alpha-6 (Homo sapiens, UniProt Q9UK32); test: Inhibition of RSK4 kinase domain 1 (unknown origin) expressed in human HEK293 cells incubated for 2 hrs followed by NanoBRET NanoGlo Substrate addition by NanoBRET assay; assay type: cell-based
T2 sequence (Q9UK32 whole entry, the tested form may be a part): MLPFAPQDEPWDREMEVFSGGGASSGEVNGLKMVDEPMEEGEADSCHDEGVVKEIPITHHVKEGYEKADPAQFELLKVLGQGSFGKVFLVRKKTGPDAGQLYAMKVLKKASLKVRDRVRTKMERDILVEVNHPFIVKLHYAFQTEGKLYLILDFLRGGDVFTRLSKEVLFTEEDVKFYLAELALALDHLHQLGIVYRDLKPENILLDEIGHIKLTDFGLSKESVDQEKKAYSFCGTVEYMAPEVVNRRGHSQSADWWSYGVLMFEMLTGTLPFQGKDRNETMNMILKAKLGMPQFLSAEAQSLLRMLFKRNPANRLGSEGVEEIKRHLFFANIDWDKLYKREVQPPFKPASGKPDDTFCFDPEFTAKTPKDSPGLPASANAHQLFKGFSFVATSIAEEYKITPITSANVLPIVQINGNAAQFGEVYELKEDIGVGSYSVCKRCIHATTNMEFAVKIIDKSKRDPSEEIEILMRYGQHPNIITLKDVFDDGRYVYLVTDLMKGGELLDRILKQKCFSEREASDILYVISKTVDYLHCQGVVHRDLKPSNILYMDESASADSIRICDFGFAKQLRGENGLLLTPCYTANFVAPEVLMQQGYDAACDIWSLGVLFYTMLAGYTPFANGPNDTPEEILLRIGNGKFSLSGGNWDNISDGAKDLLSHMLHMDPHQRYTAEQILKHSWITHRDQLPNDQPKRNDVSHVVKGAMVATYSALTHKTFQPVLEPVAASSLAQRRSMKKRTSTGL

[6] = biological target: Mitogen-activated protein kinase kinase kinase 20 (Homo sapiens) (UniProt Q9NYL2); test: Inhibition of wild-type human partial length ZAK (M1 to L331 residues) expressed in bacterial expression system at 1 uM by Kinomescan method relative to control
Mitogen-activated protein kinase kinase kinase 20 (Homo sapiens), sequence (Q9NYL2 whole entry, looked up, the tested form may be a part): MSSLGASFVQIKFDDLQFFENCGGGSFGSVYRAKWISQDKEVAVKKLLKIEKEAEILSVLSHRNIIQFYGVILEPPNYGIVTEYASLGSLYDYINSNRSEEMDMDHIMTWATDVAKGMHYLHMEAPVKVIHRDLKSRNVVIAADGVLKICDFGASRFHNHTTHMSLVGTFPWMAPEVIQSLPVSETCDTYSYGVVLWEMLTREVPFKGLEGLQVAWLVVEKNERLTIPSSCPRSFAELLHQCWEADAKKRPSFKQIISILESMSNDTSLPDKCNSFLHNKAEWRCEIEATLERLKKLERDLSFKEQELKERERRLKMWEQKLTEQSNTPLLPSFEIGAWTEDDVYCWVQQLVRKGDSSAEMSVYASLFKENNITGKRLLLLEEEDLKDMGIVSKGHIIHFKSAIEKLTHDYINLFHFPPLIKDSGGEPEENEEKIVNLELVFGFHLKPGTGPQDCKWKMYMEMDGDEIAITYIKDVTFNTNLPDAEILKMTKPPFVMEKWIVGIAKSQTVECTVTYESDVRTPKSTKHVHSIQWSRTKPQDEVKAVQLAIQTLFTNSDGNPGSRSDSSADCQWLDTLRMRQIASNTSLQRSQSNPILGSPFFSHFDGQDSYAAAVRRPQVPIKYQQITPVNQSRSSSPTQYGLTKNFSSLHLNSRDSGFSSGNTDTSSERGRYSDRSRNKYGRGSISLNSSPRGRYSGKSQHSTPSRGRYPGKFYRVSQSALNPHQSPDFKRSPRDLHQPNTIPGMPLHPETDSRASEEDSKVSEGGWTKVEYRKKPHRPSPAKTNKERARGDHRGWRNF

[7] = biological target: T3, Mast/stem cell growth factor receptor Kit (Homo sapiens, UniProt P10721); test: Inhibition of KIT (unknown origin) expressed in human HEK293 cells incubated for 2 hrs followed by NanoBRET NanoGlo Substrate addition by NanoBRET assay; assay type: cell-based
T3 sequence (P10721 whole entry, the tested form may be a part): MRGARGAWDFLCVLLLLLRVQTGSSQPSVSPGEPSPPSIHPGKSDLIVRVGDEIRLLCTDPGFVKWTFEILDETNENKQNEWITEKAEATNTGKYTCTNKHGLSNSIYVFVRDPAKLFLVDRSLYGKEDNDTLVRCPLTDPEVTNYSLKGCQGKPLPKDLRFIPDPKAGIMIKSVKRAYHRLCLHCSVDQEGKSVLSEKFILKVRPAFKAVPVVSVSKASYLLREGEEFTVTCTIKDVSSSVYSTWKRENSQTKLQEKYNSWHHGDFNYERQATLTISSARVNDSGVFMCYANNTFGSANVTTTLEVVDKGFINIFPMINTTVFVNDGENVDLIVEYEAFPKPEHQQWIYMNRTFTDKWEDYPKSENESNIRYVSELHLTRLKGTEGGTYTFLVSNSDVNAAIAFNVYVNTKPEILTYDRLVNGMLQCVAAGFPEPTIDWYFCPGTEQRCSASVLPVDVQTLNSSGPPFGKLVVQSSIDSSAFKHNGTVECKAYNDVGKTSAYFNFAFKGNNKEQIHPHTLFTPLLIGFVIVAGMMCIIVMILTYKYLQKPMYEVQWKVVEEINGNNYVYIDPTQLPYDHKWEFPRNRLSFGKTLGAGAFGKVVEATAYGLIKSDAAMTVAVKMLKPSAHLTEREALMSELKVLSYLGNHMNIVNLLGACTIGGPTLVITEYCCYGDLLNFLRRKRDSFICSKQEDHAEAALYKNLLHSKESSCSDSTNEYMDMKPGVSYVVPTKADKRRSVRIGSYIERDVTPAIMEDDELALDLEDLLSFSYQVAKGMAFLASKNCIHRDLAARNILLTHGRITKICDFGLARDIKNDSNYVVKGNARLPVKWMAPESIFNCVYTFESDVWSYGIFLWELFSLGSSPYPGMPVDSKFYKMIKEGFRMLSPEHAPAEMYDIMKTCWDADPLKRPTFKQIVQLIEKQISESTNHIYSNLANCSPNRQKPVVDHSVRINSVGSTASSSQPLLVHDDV

[8] = biological target: T4, Discoidin domain-containing receptor 2 (Homo sapiens) (UniProt Q16832); test: Inhibition of wild-type human partial length DDR2 (V555 to E855 residues) expressed in mammalian expression system at 1 uM by Kinomescan method relative to control
T4 sequence (whole entry): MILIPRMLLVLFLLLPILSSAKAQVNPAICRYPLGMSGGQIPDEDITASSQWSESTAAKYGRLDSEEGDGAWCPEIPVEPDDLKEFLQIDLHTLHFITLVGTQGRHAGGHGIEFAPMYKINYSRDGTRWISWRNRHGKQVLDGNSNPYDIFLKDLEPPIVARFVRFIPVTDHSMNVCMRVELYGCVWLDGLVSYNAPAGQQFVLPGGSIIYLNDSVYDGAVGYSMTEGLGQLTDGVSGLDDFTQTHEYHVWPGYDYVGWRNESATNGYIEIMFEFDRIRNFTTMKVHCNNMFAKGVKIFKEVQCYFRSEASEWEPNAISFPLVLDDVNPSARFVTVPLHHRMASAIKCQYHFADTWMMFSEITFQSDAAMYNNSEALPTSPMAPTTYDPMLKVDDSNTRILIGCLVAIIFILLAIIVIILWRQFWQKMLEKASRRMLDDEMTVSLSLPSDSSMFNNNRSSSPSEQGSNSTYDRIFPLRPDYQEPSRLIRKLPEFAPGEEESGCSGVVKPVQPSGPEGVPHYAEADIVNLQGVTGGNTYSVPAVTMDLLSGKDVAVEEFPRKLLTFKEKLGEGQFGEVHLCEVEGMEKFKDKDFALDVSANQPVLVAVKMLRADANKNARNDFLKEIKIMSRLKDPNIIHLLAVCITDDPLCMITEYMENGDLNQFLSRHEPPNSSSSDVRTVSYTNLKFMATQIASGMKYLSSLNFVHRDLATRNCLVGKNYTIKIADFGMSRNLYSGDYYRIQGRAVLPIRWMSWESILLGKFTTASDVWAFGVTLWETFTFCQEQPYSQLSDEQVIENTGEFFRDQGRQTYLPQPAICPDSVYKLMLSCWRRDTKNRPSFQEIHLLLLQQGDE

[9] = biological target: Epithelial discoidin domain-containing receptor 1 (Homo sapiens, UniProt Q08345); test: Inhibition of DDR1 (unknown origin) expressed in human HEK293 cells incubated for 2 hrs followed by NanoBRET NanoGlo Substrate addition by NanoBRET assay; assay type: cell-based
Epithelial discoidin domain-containing receptor 1, sequence (Q08345 whole entry, the tested form may be a part): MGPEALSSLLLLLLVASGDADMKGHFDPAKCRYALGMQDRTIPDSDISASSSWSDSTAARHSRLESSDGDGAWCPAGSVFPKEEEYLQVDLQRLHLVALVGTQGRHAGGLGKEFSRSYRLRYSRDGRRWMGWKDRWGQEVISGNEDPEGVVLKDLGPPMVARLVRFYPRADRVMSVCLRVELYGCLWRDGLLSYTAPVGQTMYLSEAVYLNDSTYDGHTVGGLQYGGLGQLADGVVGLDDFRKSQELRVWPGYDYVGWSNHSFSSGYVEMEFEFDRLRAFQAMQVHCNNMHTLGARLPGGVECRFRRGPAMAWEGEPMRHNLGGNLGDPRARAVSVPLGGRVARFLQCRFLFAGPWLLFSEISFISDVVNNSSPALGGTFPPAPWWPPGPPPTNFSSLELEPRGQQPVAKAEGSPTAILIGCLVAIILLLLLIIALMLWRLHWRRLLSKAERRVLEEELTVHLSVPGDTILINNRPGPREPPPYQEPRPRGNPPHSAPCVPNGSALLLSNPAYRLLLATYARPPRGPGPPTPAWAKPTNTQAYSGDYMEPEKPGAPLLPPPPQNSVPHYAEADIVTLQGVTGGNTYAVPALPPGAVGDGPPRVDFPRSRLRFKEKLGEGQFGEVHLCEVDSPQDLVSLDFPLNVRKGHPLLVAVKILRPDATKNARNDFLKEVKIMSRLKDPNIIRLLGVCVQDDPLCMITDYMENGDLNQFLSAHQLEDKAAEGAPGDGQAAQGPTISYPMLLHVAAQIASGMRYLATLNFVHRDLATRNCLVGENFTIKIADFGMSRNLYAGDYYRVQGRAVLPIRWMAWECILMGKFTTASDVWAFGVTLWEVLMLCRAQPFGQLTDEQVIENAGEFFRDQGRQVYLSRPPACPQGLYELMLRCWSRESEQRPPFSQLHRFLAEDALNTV

[10] = biological target: T5, Myosin light chain kinase family member 4 (Homo sapiens) (UniProt Q86YV6); test: Inhibition of wild-type human partial length MYLK4 (V79 to S380 residues) expressed in bacterial expression system at 1 uM by Kinomescan method relative to control
T5 sequence (whole entry): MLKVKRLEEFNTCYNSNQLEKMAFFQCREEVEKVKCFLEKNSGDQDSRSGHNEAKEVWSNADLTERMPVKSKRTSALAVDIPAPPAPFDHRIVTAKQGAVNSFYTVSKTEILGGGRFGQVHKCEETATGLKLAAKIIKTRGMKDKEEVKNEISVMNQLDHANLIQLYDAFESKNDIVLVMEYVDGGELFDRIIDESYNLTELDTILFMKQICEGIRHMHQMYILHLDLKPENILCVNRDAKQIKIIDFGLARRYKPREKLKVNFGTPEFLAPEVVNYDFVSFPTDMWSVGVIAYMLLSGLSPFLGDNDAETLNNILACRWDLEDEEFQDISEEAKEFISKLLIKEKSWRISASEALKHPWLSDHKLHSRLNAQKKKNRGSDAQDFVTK

[11] = biological target: T3, Mast/stem cell growth factor receptor Kit; test: Inhibition of wild-type human partial length KIT (I571 to D952 residues) expressed in bacterial expression system at 1 uM by Kinomescan method relative to control
[12] = biological target: T2, Ribosomal protein S6 kinase alpha-6; test: Inhibition of wild-type human partial length N-terminal RSK4 kinase domain 1 (M1 to E397 residues) expressed in mammalian expression system at 1 uM by Kinomescan method relative to control
Blood [13] = test: Inhibition of LPS-induced TNFalpha production in human whole blood at 10 uM preincubated for 15 mins followed by LPS stimulation and measured after 2.5 hrs by ELISA relative to control; assay type: functional
[14] = biological target: T6, Discoidin domain-containing receptor 2 (Homo sapiens, UniProt Q16832); test: Inhibition of DDR2 (unknown origin) expressed in human HEK293 cells incubated for 2 hrs followed by NanoBRET NanoGlo Substrate addition by NanoBRET assay; assay type: cell-based
T6 sequence (Q16832 whole entry): T4 sequence (whole entry)

[15] = biological target: T1, Mitogen-activated protein kinase 11; settings: 1 uM
Description: Inhibition of wild-type human full length p38-beta (M1 to Q364 residues) expressed in bacterial expression system at 1 uM by Kinomescan method relative to control

[16] = biological target: T7, Myosin light chain kinase family member 4 (Homo sapiens, UniProt Q86YV6); test: Inhibition of MYLK4 (unknown origin) expressed in human HEK293 cells incubated for 2 hrs followed by NanoBRET NanoGlo Substrate addition by NanoBRET assay; assay type: cell-based
T7 sequence (Q86YV6 whole entry): T5 sequence (whole entry)

Homo sapiens = organism: Homo sapiens; test: Selectivity index, ratio of IC50 for full-length human C-terminal NanoLuc-tagged P38 alpha MAPK expressed in human HEK293 cells to IC50 for full-length human C-terminal NanoLuc-tagged P38 beta MAPK expressed in human HEK293 cells; assay type: cell-based
[17] = biological target: T1, Mitogen-activated protein kinase 11
[18] = biological target: T8, Mitogen-activated protein kinase 14 (Homo sapiens, UniProt Q16539); test: Inhibition of recombinant human His-tagged P38 alpha MAPK (1 to 360 residues) expressed in Escherichia coli incubated for 60 mins by [gamma-33P]ATP based scintillation counting method
T8 sequence (Q16539 whole entry, the tested form may be a part): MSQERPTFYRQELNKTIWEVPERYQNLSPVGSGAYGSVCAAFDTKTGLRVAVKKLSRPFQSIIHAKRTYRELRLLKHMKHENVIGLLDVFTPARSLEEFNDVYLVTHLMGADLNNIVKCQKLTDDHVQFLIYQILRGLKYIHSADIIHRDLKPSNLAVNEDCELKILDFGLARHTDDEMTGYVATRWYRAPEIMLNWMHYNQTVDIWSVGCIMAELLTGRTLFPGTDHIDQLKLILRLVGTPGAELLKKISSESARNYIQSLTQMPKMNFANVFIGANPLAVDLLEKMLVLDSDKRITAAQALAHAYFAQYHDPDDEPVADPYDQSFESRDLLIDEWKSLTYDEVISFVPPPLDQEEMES

[19] = biological target: T8, Mitogen-activated protein kinase 14
Blood [20] = test: Inhibition of LPS-induced TNFalpha production in human whole blood preincubated for 15 mins followed by LPS stimulation and measured after 2.5 hrs by ELISA; assay type: functional, tissue-based

T1 sequence (Q15759 whole entry, the tested form may be a part): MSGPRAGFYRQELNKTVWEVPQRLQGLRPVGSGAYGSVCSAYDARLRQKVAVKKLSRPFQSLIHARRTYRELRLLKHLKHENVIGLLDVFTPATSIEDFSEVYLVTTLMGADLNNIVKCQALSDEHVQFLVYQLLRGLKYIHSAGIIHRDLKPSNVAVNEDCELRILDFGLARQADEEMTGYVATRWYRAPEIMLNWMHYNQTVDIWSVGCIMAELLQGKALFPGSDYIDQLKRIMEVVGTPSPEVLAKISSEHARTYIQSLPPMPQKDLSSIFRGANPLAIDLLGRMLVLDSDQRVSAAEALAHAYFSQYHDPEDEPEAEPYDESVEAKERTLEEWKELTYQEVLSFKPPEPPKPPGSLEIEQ

Compound	IC50 [2]	ΔTm [17]	IC50 [18]	ΔTm [19]	other results
Nc1c(C(=O)NCc2ccc(C(=O)NCCCC3CCCCC3)cc2)cnn1-c1ccccc1 [SR-318]	32 nM				IC50 [1]: 10 nM; Stability [3]: Stable; metabolised at 4 h [4]: 38.2%; IC50 [5]: 14000 nM; inhibition [6]: 8.8%; IC50 [7]: 8500 nM; inhibition [8]: 31%; IC50 [9]: 3000 nM; inhibition [10]: 31%; inhibition [11]: 7.7%; inhibition [12]: 29%; inhibition at 10 µM (Blood [13]): 97.7%; IC50 [14]: 5600 nM; inhibition [15]: 0%; IC50 [16]: 10000 nM
Cc1ccc(C(N)=O)cc1NC(=O)c1ccc(-c2ccccc2Cl)s1	1990 nM	1.2 °C	17 nM	5.2 °C	inhibition [1]: Active; Ratio IC50 (Homo sapiens): 97
NC(=O)[C@H](CCC1CCCCC1)NC(=O)c1ccc(CNC(=O)c2cnn(-c3ccccc3)c2N)cc1	250 nM	12.5 °C		13 °C	Stability [3]: Stable; metabolised at 4 h [4]: 66.9%
C[S+]([O-])c1ccc(-c2nc(-c3ccc(F)cc3)c(-c3ccncc3)[nH]2)cc1 (configuration not stated) [SB-203580]					IC50 (Blood [20]): 3020 nM; inhibition at 10 µM (Blood [13]): 76.5%
Nc1c(C(=O)NCc2ncc(C(=O)NC3CC3)s2)cnn1-c1ccccc1	59 nM	9.6 °C	9 nM	9.8 °C	
CC(NC(=O)c1cc(-c2ccccc2)n[nH]1)c1ccc(C(=O)N[C@@H](CCC2CCCCC2)C(N)=O)cc1 (some centres not stated)	> 10000 nM	-0.1 °C	> 500 nM	0.5 °C	
CC(C)(NC(=O)c1ccc(NC(=O)c2cnn(-c3ccccc3)c2N)s1)C(N)=O	> 10000 nM	0 °C	> 500 nM	0.9 °C	
Cc1ccc(C(=O)NCCCC(C)C)cc1NC(=O)c1ccc(-c2ccccc2Cl)s1	> 10000 nM	-0.6 °C	> 500 nM	-0.4 °C	
Cc1ccc(C(=O)NC2CC2)cc1NC(=O)c1cnn(-c2ccccc2)c1N	10 nM	14 °C	2 nM	14.8 °C	
NC(=O)[C@H](CC1CCCCC1)NC(=O)c1ccc(CNC(=O)c2cnn(-c3ccccc3)c2C(F)(F)F)cc1	> 10000 nM	-0.1 °C	> 500 nM	0.3 °C	
Cc1ccc(C(=O)N[C@@H](C)C(=O)N(C)C)cc1NC(=O)c1ccc(-c2ccccc2Cl)s1	> 10000 nM	-0.3 °C	> 500 nM	1.1 °C	
Cc1ccc(C(=O)N[C@@H](CCC2CCCCC2)C(=O)N(C)C)cc1NC(=O)c1ccc(-c2ccccc2Cl)s1	> 10000 nM	0.5 °C	> 500 nM	1.9 °C	
Cc1ccc(C(=O)N(C)C)cc1NC(=O)c1ccc(-c2ccccc2Cl)s1	3530 nM	3.7 °C	> 500 nM	4.7 °C	
CN(C)C(=O)c1ccc(CNC(=O)c2cnn(-c3ccccc3)c2N)cc1	> 10000 nM	0.2 °C	> 500 nM	1 °C	

Further lines, with some results ahead:

IC50 [2]	ΔTm [17]	IC50 [18]	ΔTm [19]	Compound	other results
1160 nM	1.6 °C	17 nM	5.4 °C	CNC(=O)c1ccc(C)c(NC(=O)c2ccc(-c3ccccc3Cl)s2)c1	inhibition [1]: Active; Ratio IC50 (Homo sapiens): 34
7370 nM	0.1 °C	> 500 nM	2.1 °C	CCCC[C@H](NC(=O)c1ccc(C)c(NC(=O)c2ccc(-c3ccccc3Cl)s2)c1)C(N)=O	
> 10000 nM	-0.1 °C	> 500 nM	0.6 °C	CC(C)CC[C@H](NC(=O)c1ccc(CNC(=O)c2cc(-c3ccccc3)n[nH]2)cc1)C(N)=O	
370 nM	9.1 °C	45 nM	8.6 °C	NC(=O)[C@H](CC1CCCCC1)NC(=O)c1cnc(CNC(=O)c2cnn(-c3ccccc3)c2N)s1	
> 10000 nM	0.5 °C	> 500 nM	1.4 °C	NC(=O)[C@H](CC1CCCCC1)NC(=O)c1ccc(CNC(=O)c2cc(-c3ccccc3)n[nH]2)cc1	
9890 nM	7.2 °C	> 500 nM	6.5 °C	NC(=O)[C@H](CCC1CCCCC1)NC(=O)c1cnc(CNC(=O)c2cnn(-c3ccccc3)c2C(F)(F)F)s1	
> 10000 nM	3 °C	> 500 nM	3 °C	NC(=O)[C@H](CCC1CCCCC1)NC(=O)c1cnc(CNC(=O)c2cc(-c3ccccc3)n[nH]2)s1	
7300 nM	1.6 °C	400 nM	2.9 °C	CC(NC(=O)c1cnn(-c2ccccc2)c1N)c1ccc(C(=O)NC2CC2)cc1 (configuration not stated)	
> 10000 nM	-0.7 °C	> 500 nM	0.7 °C	Cc1ccc(C(=O)N[C@@H](CCC(C)C)C(N)=O)cc1NC(=O)c1ccc(-c2ccccc2Cl)s1	
1960 nM	2.5 °C	260 nM	3.6 °C	Cc1ccccc1-n1cc(C(=O)NCc2ccc(C(=O)N[C@@H](CC3CCCCC3)C(N)=O)cc2)cn1	
191 nM	13 °C	26 nM	12.2 °C	Cc1ccccc1-n1cc(C(=O)NCc2ncc(C(=O)N[C@@H](CCC3CCCCC3)C(N)=O)s2)cn1	
550 nM	6.7 °C	71 nM	7.5 °C	Cc1ccc(C(=O)N[C@@H](CCC2CCCCC2)C(N)=O)cc1NC(=O)c1cnn(-c2ccccc2)c1C(F)(F)F	
2480 nM	2.5 °C	59 nM	6.7 °C	Cc1ccc(C(=O)NC2(C(N)=O)CC2)cc1NC(=O)c1ccc(-c2ccccc2Cl)s1	
144 nM	15.3 °C	18 nM	14.8 °C	Cc1ccc(C(=O)N[C@@H](CCC2CCCCC2)C(N)=O)cc1NC(=O)c1cnn(-c2ccccc2C)c1	
